Laboratory results from US5556744A, “Methods and compositions for diagnosing and treating certain HIV infected patients” (The Trustees of the University of Pennsylvania, priority 1994, dated 1996).

Legend:
[1] = tested on: maternal HIV+ sera (antibodies); experiment: RIA / ELISA binding of maternal HIV+ sera to gp120 and gp41 peptides (Example 3); set-up: species or system human
Procedure, shortened: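 Peptides were coated at 10 μg/ml in carbonate buffer pH 9.6 and blocked with 1% BSA. Sera at 1:50 and 1:500 were incubated overnight at 4°C and detected with ¹²⁵I anti-human IgG (RIA) or HRP/TMB at OD450 (ELISA). Specific binding was taken as peptide minus no-peptide wells, scored as a ratio to normal human serum.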

[2] = tested on: maternal sera (antibodies); experiment: ELISA peptide-binding of maternal sera (Example 6); set-up: species or system human; conditions: for Number of Non-Transmitters which bound to peptide / Percent of Non-Transmitters which bound to peptide: N = 12; for Number of Transmitters which bound to peptide / Percent of Transmitters which bound to peptide: N = 4
Procedure, shortened: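 Third-trimester maternal sera, from HIV-1 transmitting and non-transmitting mothers, were tested by ELISA against ~16-residue peptides spanning HIV-1 external and transmembrane glycoproteins. Each serum was run with at least 40 peptides, and values are the percentage of sera binding each peptide.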

[3] = Serum No. 1, Non-Transmission Group
[4] = Serum No. 2, Non-Transmission Group
[5] = Serum No. 3, Non-Transmission Group
[6] = Serum No. 4, Transmission Group
[7] = Serum No. 5, Transmission Group
[8] = Serum No. 6, Non-Transmission Group
[9] = Serum No. 7, Non-Transmission Group
[10] = Serum No. 8, Non-Transmission Group
[11] = Serum No. 9, Non-Transmission Group
[12] = Serum No. 10, Transmission Group
[13] = Serum No. 11, Non-Transmission Group
[14] = Serum No. 12, Non-Transmission Group
[15] = Serum No. 13, Transmission Group
[16] = Serum No. 14, Transmission Group
[17] = Serum No. 15, Transmission Group
[18] = Serum No. 16, Non-Transmission Group
[19] = Serum No. 17, Non-Transmission Group
[20] = Serum No. 18, Non-Transmission Group
[21] = Serum No. 19, Transmission Group
[22] = Serum No. 20, Non-Transmission Group

Sequence	Binding of maternal HIV+ serum to peptide (sera/NHS ratio) [1, 3]	Binding of maternal HIV+ serum to peptide (sera/NHS ratio) [1, 4]	Binding of maternal HIV+ serum to peptide (sera/NHS ratio) [1, 5]	Binding of maternal HIV+ serum to peptide (sera/NHS ratio) [1, 6]	Binding of maternal HIV+ serum to peptide (sera/NHS ratio) [1, 7]	Binding of maternal HIV+ serum to peptide (sera/NHS ratio) [1, 8]	Binding of maternal HIV+ serum to peptide (sera/NHS ratio) [1, 9]	Binding of maternal HIV+ serum to peptide (sera/NHS ratio) [1, 10]	Binding of maternal HIV+ serum to peptide (sera/NHS ratio) [1, 11]	Binding of maternal HIV+ serum to peptide (sera/NHS ratio) [1, 12]	Binding of maternal HIV+ serum to peptide (sera/NHS ratio) [1, 13]	Binding of maternal HIV+ serum to peptide (sera/NHS ratio) [1, 14]	Binding of maternal HIV+ serum to peptide (sera/NHS ratio) [1, 15]	Binding of maternal HIV+ serum to peptide (sera/NHS ratio) [1, 16]	Binding of maternal HIV+ serum to peptide (sera/NHS ratio) [1, 17]	Binding of maternal HIV+ serum to peptide (sera/NHS ratio) [1, 18]	Binding of maternal HIV+ serum to peptide (sera/NHS ratio) [1, 19]	Binding of maternal HIV+ serum to peptide (sera/NHS ratio) [1, 20]	Binding of maternal HIV+ serum to peptide (sera/NHS ratio) [1, 21]	Binding of maternal HIV+ serum to peptide (sera/NHS ratio) [1, 22]	also measured
EGGERDRDRSIRLVN [Peptide 129]	+ (which value is between 2 to 3)	- (specific OD450 or cpm of sera sample binding to peptide divided by the specific OD450 or cpm of NHS sample binding to peptide, which value is less than 2)	- (specific OD450 or cpm of sera sample binding to peptide divided by the specific OD450 or cpm of NHS sample binding to peptide, which value is less than 2)	- (specific OD450 or cpm of sera sample binding to peptide divided by the specific OD450 or cpm of NHS sample binding to peptide, which value is less than 2)	- (specific OD450 or cpm of sera sample binding to peptide divided by the specific OD450 or cpm of NHS sample binding to peptide, which value is less than 2)	- (specific OD450 or cpm of sera sample binding to peptide divided by the specific OD450 or cpm of NHS sample binding to peptide, which value is less than 2)	- (specific OD450 or cpm of sera sample binding to peptide divided by the specific OD450 or cpm of NHS sample binding to peptide, which value is less than 2)	- (specific OD450 or cpm of sera sample binding to peptide divided by the specific OD450 or cpm of NHS sample binding to peptide, which value is less than 2)	- (specific OD450 or cpm of sera sample binding to peptide divided by the specific OD450 or cpm of NHS sample binding to peptide, which value is less than 2)	- (specific OD450 or cpm of sera sample binding to peptide divided by the specific OD450 or cpm of NHS sample binding to peptide, which value is less than 2)	- (specific OD450 or cpm of sera sample binding to peptide divided by the specific OD450 or cpm of NHS sample binding to peptide, which value is less than 2)	- (specific OD450 or cpm of sera sample binding to peptide divided by the specific OD450 or cpm of NHS sample binding to peptide, which value is less than 2)	- (specific OD450 or cpm of sera sample binding to peptide divided by the specific OD450 or cpm of NHS sample binding to peptide, which value is less than 2)	- (specific OD450 or cpm of sera sample binding to peptide divided by the specific OD450 or cpm of NHS sample binding to peptide, which value is less than 2)	- (specific OD450 or cpm of sera sample binding to peptide divided by the specific OD450 or cpm of NHS sample binding to peptide, which value is less than 2)	- (specific OD450 or cpm of sera sample binding to peptide divided by the specific OD450 or cpm of NHS sample binding to peptide, which value is less than 2)	- (specific OD450 or cpm of sera sample binding to peptide divided by the specific OD450 or cpm of NHS sample binding to peptide, which value is less than 2)	- (specific OD450 or cpm of sera sample binding to peptide divided by the specific OD450 or cpm of NHS sample binding to peptide, which value is less than 2)	- (specific OD450 or cpm of sera sample binding to peptide divided by the specific OD450 or cpm of NHS sample binding to peptide, which value is less than 2)	- (specific OD450 or cpm of sera sample binding to peptide divided by the specific OD450 or cpm of NHS sample binding to peptide, which value is less than 2)	Number of Non-Transmitters which bound to peptide [2]: 0; Percent of Non-Transmitters which bound to peptide [2]: 0%; Number of Transmitters which bound to peptide [2]: 0; Percent of Transmitters which bound to peptide [2]: 0%
FSYHRLRDLLLIVTR [Peptide 132]	+ (which value is between 2 to 3)	- (specific OD450 or cpm of sera sample binding to peptide divided by the specific OD450 or cpm of NHS sample binding to peptide, which value is less than 2)	- (specific OD450 or cpm of sera sample binding to peptide divided by the specific OD450 or cpm of NHS sample binding to peptide, which value is less than 2)	- (specific OD450 or cpm of sera sample binding to peptide divided by the specific OD450 or cpm of NHS sample binding to peptide, which value is less than 2)	- (specific OD450 or cpm of sera sample binding to peptide divided by the specific OD450 or cpm of NHS sample binding to peptide, which value is less than 2)	- (specific OD450 or cpm of sera sample binding to peptide divided by the specific OD450 or cpm of NHS sample binding to peptide, which value is less than 2)	- (specific OD450 or cpm of sera sample binding to peptide divided by the specific OD450 or cpm of NHS sample binding to peptide, which value is less than 2)	- (specific OD450 or cpm of sera sample binding to peptide divided by the specific OD450 or cpm of NHS sample binding to peptide, which value is less than 2)	+ (which value is between 2 to 3)	- (specific OD450 or cpm of sera sample binding to peptide divided by the specific OD450 or cpm of NHS sample binding to peptide, which value is less than 2)	- (specific OD450 or cpm of sera sample binding to peptide divided by the specific OD450 or cpm of NHS sample binding to peptide, which value is less than 2)	- (specific OD450 or cpm of sera sample binding to peptide divided by the specific OD450 or cpm of NHS sample binding to peptide, which value is less than 2)	- (specific OD450 or cpm of sera sample binding to peptide divided by the specific OD450 or cpm of NHS sample binding to peptide, which value is less than 2)	- (specific OD450 or cpm of sera sample binding to peptide divided by the specific OD450 or cpm of NHS sample binding to peptide, which value is less than 2)	- (specific OD450 or cpm of sera sample binding to peptide divided by the specific OD450 or cpm of NHS sample binding to peptide, which value is less than 2)	- (specific OD450 or cpm of sera sample binding to peptide divided by the specific OD450 or cpm of NHS sample binding to peptide, which value is less than 2)	- (specific OD450 or cpm of sera sample binding to peptide divided by the specific OD450 or cpm of NHS sample binding to peptide, which value is less than 2)	- (specific OD450 or cpm of sera sample binding to peptide divided by the specific OD450 or cpm of NHS sample binding to peptide, which value is less than 2)	- (specific OD450 or cpm of sera sample binding to peptide divided by the specific OD450 or cpm of NHS sample binding to peptide, which value is less than 2)	- (specific OD450 or cpm of sera sample binding to peptide divided by the specific OD450 or cpm of NHS sample binding to peptide, which value is less than 2)	Number of Non-Transmitters which bound to peptide [2]: 1; Percent of Non-Transmitters which bound to peptide [2]: 83%; Number of Transmitters which bound to peptide [2]: 0; Percent of Transmitters which bound to peptide [2]: 0%
